The results in this text go back to the NIST ThermoML archive (doi:10.1016/j.jct.2019.04.005).

± gives the expanded uncertainty stated by the source.

A word on the mass density: it is mass per unit of volume. As a reminder, the refractive index is the speed of light in vacuum divided by its phase velocity in the sample.

Data set [1] is described as follows: wn = mass fraction of the nth substance listed. Particulars: 298.2 K; 100 kPa; Liquid; Vibrating tube method; w1 = 0.85.
A short description of data set [2]: refractive index (Na D-line) (dimensionless); wn = mass fraction of the nth substance listed. Particulars: 298.2 K; 100 kPa; Liquid; Standard Abbe refractometry; w1 = 0.85.
For data set [3] the following is noted: 298.2 K; 101.33 kPa; Liquid; Vibrating tube method.
Data set [4] can be described thus: refractive index (Na D-line) (dimensionless). The settings on record: 298.2 K; 101.33 kPa; Liquid; Standard Abbe refractometry.

With `O=P(O)(O)O` [phosphoric acid] + O, the mass density in data set [1] is 1682.7 ± 2.2 kg/m3. Besides, the refractive index in data set [2] was determined as 1.432 ± 0.003. `CC(C)CC(C)O` (configuration not stated) [4-methyl-2-pentanol]: the mass density in data set [3] came to 803.77 ± 2.1 kg/m3. Besides, the refractive index in data set [4] is listed as 1.4101 ± 0.003. The corresponding values for `CCCC(C)O` (configuration not stated) [pentan-2-ol] are 805.3 ± 2.1 kg/m3 and 1.4049 ± 0.003.

As for `O` [water], the refractive index in data set [4] is given as 1.3325 ± 0.003.
